From PMC4857130, “Mechanistic and quantitative insight into cell surface targeted molecular imaging agent design” (Scientific Reports, 2016)
Like-named read-outs stand apart in the source and are kept apart here. Marks after values point to notes of the source that are not given here.

How the values were obtained:
[1] = tested on: plasma protein; settings: cited from earlier work
[2] = tested on: LNCaP or PC3 xenografts; design: method as in PMID 19706750, PMID 23733925; settings: cited from earlier work; for TBR (tumor to muscle ratio) / blood concentration: 4 h post-injection; for TBR (tumor to muscle ratio): calculated from published tumor and skeletal muscle uptake
[3] = biological target: PSMA; design: method as in PMID 19706750, PMID 23733925; settings: strongest affinity of all PSMA binders tested; cited from earlier work
[4] = tested on: plasma protein; experiment: Plasma protein binding by Rapid Equilibrium Dialysis (RED); type: in vitro ADME; settings: 12 kDa plate
From the text: Plasma protein interactions were quantified for commonly used, commercially available far-red and near-infrared fluorescent dyes. For IRDye 800CW, ZW800, BODIPY 650, Alexa Fluor 680, and integrin conjugates, a Rapid Equilibrium Dialysis (RED) plate (Thermo Scientific) was used following the manufacturer’s protocol.
Rapid Equilibrium Dialysis (RED) was used to quantify plasma protein binding
for various fluorescent dyes (carboxylate form) and fluorescent conjugates.
are available with membrane molecular weight cutoffs of either 8 kDa or 12 kDa.
that many of the fluorescent conjugates are >1 kDa, the 12 kDa plate were used to reduce
The 12 kDa RED plate gave

O=C([O-])CN(CCN(CC(=O)[O-])CC(=O)[O-])CCN(CC(=O)[O-])CC(=O)[O-].[99Tc+4] [99mTc-DTPA]
plasma protein binding [1]: < 5%

CC1(C)C(/C=C/C=C/C=C/C=C2\N(CCCCS(=O)(=O)[O-])c3ccc4ccccc4c3C2(C)C)=[N+](CCCCS(=O)(=O)[O-])c2ccc3ccccc3c21.[Na+] [ICG dye]
% Plasma Protein Bound ([1]; estimates based on a subsaturating concentration of ICG): 99.5–99.975 ^* %

O=C(O)CC[C@H](NC(=O)N[C@@H](CCCCNCc1ccc(I)cc1)C(=O)O)C(=O)O [MIP1072]
TBR (tumor to muscle ratio) [2]: 171
blood concentration [2]: 0.06 %ID/g

O=C(O)CC[C@H](NC(=O)N[C@@H](CCCCNC(=O)Nc1ccc(I)cc1)C(=O)O)C(=O)O [MIP1095]
skeletal muscle uptake ([2]; highest of the PSMA set): 0.26 %ID/g
Kd [3]: 0.24 nM

O=C(O)CC[C@H](NC(=O)N[C@@H](CCC(=O)N[C@@H](CCCCN(Cc1nccn1CC(=O)N(CC(=O)O)CC(=O)O)Cc1nccn1CC(=O)N(CC(=O)O)CC(=O)O)C(=O)O)C(=O)O)C(=O)O [MIP1404]
TBR (tumor to muscle ratio) [2]: 157
blood concentration [2]: 0.02 %ID/g

O=C(O)CC[C@H](NC(=O)N[C@@H](CCC(=O)NC(CCCCN(Cc1nccn1CC(=O)O)Cc1nccn1CC(=O)O)C(=O)O)C(=O)O)C(=O)O (stereo partly shown) [MIP1427]
TBR (tumor to muscle ratio) [2]: 31
blood concentration [2]: 0.28 %ID/g

CC1(C)C(=CC=CC=CC=CC2=[N+](CCCCS(=O)(=O)[O-])c3ccc(C(=O)NC[C@H](O)[C@@H](O)[C@H](O)C(O)CO)cc3C2(C)C)N(CCCCS(=O)(=O)[O-])c2ccc(C(=O)NCC(O)C(O)C(O)[C@H](O)CO)cc21.[Na+] (stereo partly shown) [SIDAG dye]
% Plasma Protein Bound ([1]; reported bound fraction in the plasma, discussed in SI): 57 ^* %

IRDye 800CW carboxylate
% Plasma Protein Bound [4]: 89 ± 3%

Inulin
plasma protein binding ([1]; classic example, no reference given): no measurable plasma protein binding
